{"source": "patent US11752125B2", "about": "“Anti-neuroinflammatory and protective compounds in Achillea fragrantissima” (THE STATE OF ISRAEL MINISTRY OF AGRICULTURE & RURAL …, priority 2013, dated 2023)", "key": {"ERK1/2": {"tested_on": "ERK1/2", "assay": "Aβ25-35-induced ERK1/2 phosphorylation in N2a cells (ELISA)", "type": "cell-based", "conditions": "concomitant treatment 30-40 min", "procedure": "7. Measure the amount of total and phosphorylated ERK 1/2 in cell lysates of N2a cells, by ELISA using the PathScan total p44/42 MAPK (ERK 1/2) sandwich ELISA kit (Cell Signaling TECHNOLOGY) or the PathScan phosoho-p44/42 MAPK (Thr202/Tyr204) sandwich ELISA kit (Cell Signaling TECHNOLOGY), respectively. 8. Determine the optical density at 450 nm using a microplate reader.\nN2a cells were treated concomitantly with Aβ25-35 and TTF for 30 min. Cells were extracted and the levels of phosphorylated or total ERK1/2 were determined by specific ELISA kits. The results are shown in FIG. 14 and are the mean±SEM of two different experiments (n=4).\n(§1) N2a cells were treated concomitantly with Aβ25-35 and achillolide A for 40 min. Cells were extracted and the levels of phosphorylated or total ERK 1/2 were determined by specific ELISA kits. The results are the mean±SEM of two different experiments (n=4).\nN2a cells were treated concomitantly with Aβ25-35 and memantine for 30 min. Cells were extracted and the levels of phosphorylated ERK1/2 were determined by a specific ELISA kit. The results are the mean±SEM of one experiment (n=2)."}, "SAPK/JNK": {"tested_on": "SAPK/JNK", "assay": "Aβ25-35-induced SAPK/JNK phosphorylation in N2a cells (ELISA)", "type": "cell-based", "conditions": "concomitant treatment 30-40 min", "procedure": "7. Measure the amount of total and phosphorylated SAPK/JNK in cell lysates) of N2a cells, by ELISA using the PathScan total SAPK/JNK sandwich ELISA kit (Cell Signaling TECHNOLOGY) and the PathScan phosoho-SAPK/JNK (Thr183/Tyr185) sandwich ELISA kit (Cell Signaling TECHNOLOGY), respectively, according to the manufacturer's instructions. 8. Determine the optical density at 450 nm using a microplate reader.\nas §1, with “TIF” for “achillolide A”, “SAPK/JNK” for “ERK 1/2”, “(n=4) for phosphorylated SAPK/JNK and three different experiments (n=6) for total SAPK/JNK.” for “(n=4).”\nas §1, with “SAPK/JNK” for “ERK 1/2”, “(n=4) for phosphorylated SAPK/JNK and three different experiments (n=6) for total SAPK/JNK.” for “(n=4).”\nN2a cells were treated concomitantly with Aβ25-35 and memantine for 30 min. Cells were extracted and the levels of phosphorylated SAPK/JNK were determined by a specific ELISA kit. The results are the mean±SEM of one experiment (n=2)."}, "ERK 1/2": {"tested_on": "ERK 1/2", "assay": "H2O2-induced ERK 1/2 phosphorylation in astrocytes (ELISA)", "type": "cell-based, rat", "conditions": "H2O2 175 μM 40 min; for effect on H2O2-induced phosphorylation of ERK1/2: astrocytes preincubated 2 h", "procedure": "Astrocytes were treated with TTF 2 h before the addition of H2O2. Cells were lysed 40 minutes after the addition of H2O2 in lysis buffer supplied by PathScan sandwich ELISA kit (Cell Signaling TECHNOLOGY) according to the manufacturer's protocol. Protein concentrations in cell lysates were determined by Bradford reagent (Bio-Rad, Hercules, Calif.), and equal amounts of proteins were subjected to ELISA. To measure the amount of total and phosphoSAPK/JNK in cell lysates of astrocytes, ELISA was performed according to the manufacturer's protocol using the PathScan total SAPK/JNK sandwich ELISA kit (Cell Signaling TECHNOLOGY) and the PathScan phospho-SAPK/JNK (Thr183/Tyr185) sandwich ELISA kit (Cell Signaling TECHNOLOGY), respectively. To measure the amount of total and phospho-ERK 1/2 (i.e. phospho-p44/42 MAPK) in cell lysates of astrocytes, ELISA was performed according to the manufacturer's protocol using the PathScan total p44/42 MAPK (ERK 1/2) sandwich ELISA kit (Cell Signaling TECHNOLOGY) and the PathScan phospho-p44/42 MAPK (Thr202/Tyr204) sandwich ELISA kit (Cell Signaling TECHNOLOGY), respectively. To measure the amount of total and phospho-MEK1 in cell lysates of astrocytes, ELISA was performed according to the manufacturer's protocol using the PathScan total MEK1 sandwich ELISA kit (Cell Signaling TECHNOLOGY) and the PathScan phospho-MEK1 (Ser217/221) sandwich ELISA kit (Cell Signaling TECHNOLOGY), respectively. […] The optical density was determined at 450 nm using a microplate reader.\n1. […] Determine the optical density at 450 nm using a microplate reader.\nAstrocytes were treated with 175 μM of H2O2 for 40 min following preincubation with TTF for 2 h. The levels of phosphorylated and total SAPK/JNK (FIG. 3A), MEK1 (FIG. 3B) and ERK 1/2 (FIG. 3C) were measured by ELISA. […]"}}, "data": [{"compound": "COc1cc(-c2oc3cc(OC)c(OC)c(O)c3c(=O)c2O)ccc1O", "note": "[TTF, 3,5,4′-trihydroxy-6,7,3′-trimethoxyflavone]", "values": [{"measurement": "effect on Aβ25-35-induced phosphorylation of ERK1/2", "setting": "ERK1/2", "value": "significantly inhibited"}, {"measurement": "effect on Aβ25-35-induced phosphorylation of SAPK/JNK", "setting": "SAPK/JNK", "value": "significantly inhibited"}, {"measurement": "inhibition of H2O2-induced phosphorylation of ERK 1/2", "setting": "ERK 1/2; astrocytes pretreated 2 h, total ERK 1/2 not affected", "value": 30, "unit": "%"}]}, {"compound": "C=C1CCC2=C(CO)C(=O)O[C@H]2/C=C(\\C)[C@H](OC(C)=O)CC1=O", "note": "[achillolide A]", "values": [{"measurement": "effect on Aβ25-35-induced phosphorylation of ERK1/2", "setting": "ERK1/2", "value": "significantly decreased"}, {"measurement": "effect on Aβ25-35-induced phosphorylation of SAPK/JNK", "setting": "SAPK/JNK", "value": "significantly decreased"}, {"measurement": "effect on H2O2-induced phosphorylation of ERK1/2", "setting": "ERK 1/2", "value": "inhibitory effect"}]}, {"compound": "CC12CC3CC(C)(C1)CC(N)(C3)C2", "note": "[memantine, reference compound]", "values": [{"measurement": "effect on Aβ25-35-induced phosphorylation of ERK1/2", "setting": "ERK1/2", "value": "does not affect"}, {"measurement": "effect on Aβ25-35-induced phosphorylation of SAPK/JNK", "setting": "SAPK/JNK", "value": "down-regulates"}, {"measurement": "effect on H2O2-induced phosphorylation of ERK1/2", "setting": "ERK 1/2", "value": "inhibitory effect"}]}]}
